Patent publication US20260297060A1, “COMPOUNDS FOR THE DEGRADATION OF MUTANT BRAF” (C4 THERAPEUTICS, INC., priority 2023, published 2026)
Read-outs that look alike come from different tables or passages of the source.

Assays:
[1] = Pharmacokinetics after 21 days dosing in the efficacy study (plasma, tumor and brain concentrations; plasma AUC at steady state), Example 14; type: in vivo, female BALB/c nude mice; details: for Concentration in Brain / concentration at 24 h: 24 h; for Concentration in Brain: BQL: below the lower limit of quantitation; for concentration at 4 h / concentration at 24 h / concentration at 0.25 h / concentration at 0.5 h / concentration at 1 h / concentration at 2 h / concentration at 8 h / concentration at 10 h: mouse, po
Procedure: Agents were tested in the A375 human melanoma xenografts. Compound 26 and Compound 141 were administered to BALB/c nude mice bearing A375 tumors from PG-DO and dosed via PO twice a day (BID) or third a day (TIP) or dosed P daily (QD) from PG-D. Dabrafenib was administered to BALB/c nude mice bearing A375 tumors from PG-D1 and dosed via P daily (QD). Compound 26 was dosed at 1.5 mg/kg (QD), 2 mg/kg (TID), 3 mg/kg (BID), 6 mg/kg (QD) and 10 mg/kg (BID) for 21 days. Compound 141 was dosed at 0.75 mg/kg (BID), 1 mg/kg (TID), 1.5 mg/kg (BID), 3 mg/kg (QD) and 5 mg/kg (BID) for 21 days. Dabrafenib was dosed at 100 mg/kg for 21 days. This study was non-GLP.
The plasma samples were collected at predetermined time points for PK analysis. For non-termination plasma collection: the blood samples were collected into the 1.5 mL Eppendorf tubes containing 3 μL of 0.5 M EDTA-K2. And then the anticoagulant blood samples were centrifuged at 2,500 g at 4° C. for 15 minutes. For termination plasma collection: the mice was euthanized at predetermined time points post the treatment, the blood samples were collected into the 1.5 mL Eppendorf tubes containing 15 μL of 0.5 M EDTA-K2. And then the anticoagulant blood samples were centrifuged at 2,500 g at 4° C. for 15 minutes. The plasma samples were separated into 2 aliquots. The 1st was used for PK analysis, and the 2nd was served as backup.
The tumor samples were collected at predetermined time points for PK and WB analysis. The tumor was dissected out and split into 3 parts. The 1st part was used for PK analysis, the 2nd part was used for WB analysis and the last one was used as backup for the study. The samples were transferred into pre-labeled tubes and quickly froze in liquid nitrogen within 2 minutes after dissection. The samples were stored at −80° C. before analysis.
The brain samples were collected at predetermined time points for PK and potential WB analysis. The brain was dissected out and split into 3 parts (left brain, right brain upper and right brain lower), the left brain was used for PK, the right brain upper was used for WB and the last one was used as the backup for the study. The samples were transferred into pre-labeled tubes and quickly froze in liquid nitrogen within 2 minutes after dissection. The samples were stored at −80° C. before analysis.
The harvested plasma and tumor samples were processed for pharmacokinetics analysis by LC-MS/MS with a concentration range of 1.00-1,000 ng/mL for dabrafenib in plasma and 0.0500-50 ng/mL in tumor and brain homogenate, 5.00-10,000 ng/mL for Compound 141 in plasma and 0.200~200 ng/ml in tumor and brain homogenate. 20.0~20,000 ng/mL for Compound 26 in plasma and 0.5~500 ng/mL for Compound 26 tumor and brain homogenate.
Dabrafenib, Compound 26 and Compound 141 in female BALB/c nude mice plasma (K2-EDTA), tumor and brain homogenate were analyzed by LC-MS/MS (Triple Quad 6500+ Low Mass). Verapamil (5 ng/mL) in acetonitrile: methanol (V: V=95:5) was used as the internal standard for Dabrafenib, Compound 26 and Compound 141 in plasma. Verapamil (0.5 ng/mL) in acetonitrile: methanol (V: V=95:5) was used as the internal standard for Dabrafenib, Compound 26 and Compound 141 in tumor and brain homogenate.
An aliquot of 10 μL unknown sample, calibration standard, quality control, dilute quality control, single blank and double blank samples were added to the 96-well plate. Each sample for Dabrafenib, Compound 26 and Compound 141 in plasma (except the double blank) was quenched with 200 μL IS respectively (double blank sample was quenched with 200 μL ACN: MeOH (V: V=95:5)); each sample for Dabrafenib, Compound 26 and Compound 141 in tumor and brain(except the double blank) was quenched with 100 μL IS respectively (double blank sample was quenched with 100 μL ACN: MeOH (V: V=95:5)); and then the mixture was vortex-mixed for 5 min at 800 rpm and centrifuged for 15 min at 3220 g (4000 rpm), 4° C. […]

A375 = A375 cell viability assay (Example 15); type: cell-based, human
Procedure: FIG. 83 is a line graph showing the results of Compound 26, Compound 26-NMe, Compound 141, and Compound 141-NMe in an A375 viability assay. The y-axis is viability in % and the x-axis is concentration (nM). The experiment was conducted as described in Example 15.
This robust degradation activity is surprising in view of the minimal inhibition-based activity of selected compounds. […] However, the degradation deficient versions of Compound 26 and Compound 141 (N-methyl analogs) had minimal effect on cell viability at a concentration of 100 nM (see FIG. 83 and Example 15).

[2] = plasma, 0.75 mg/kg p.o. BID x 21 days, mean ± SEM
[3] = plasma, 0.75 mg/kg p.o. BID x 21 days, mean ± SEM, read-out: Concentration in Plasma
[4] = plasma, 1 mg/kg p.o. TID x 21 days, mean ± SEM
[5] = plasma, 1 mg/kg p.o. TID x 21 days, mean ± SEM, read-out: Concentration in Plasma
[6] = plasma, 1.5 mg/kg p.o. BID x 21 days, mean ± SEM
[7] = plasma, 1.5 mg/kg p.o. BID x 21 days, mean ± SEM, read-out: Concentration in Plasma
[8] = plasma, 3 mg/kg p.o. QD x 21 days, mean ± SEM
[9] = plasma, 3 mg/kg p.o. QD x 21 days, mean ± SEM, read-out: Concentration in Plasma
[10] = plasma, 5 mg/kg p.o. BID x 21 days, mean ± SEM
[11] = plasma, 5 mg/kg p.o. BID x 21 days, mean ± SEM, read-out: Concentration in Plasma
[12] = tumor, 1 mg/kg p.o. TID x 21 days, mean ± SEM, read-out: Concentration in Tumor
[13] = tumor, 1.5 mg/kg p.o. BID x 21 days, mean ± SEM, read-out: Concentration in Tumor

For `CCN(C)S(=O)(=O)Nc1ccc(F)c(Oc2ccc3ncn(C4CC5(CCN(C6CC7(C6)CN(c6cc8c(cc6F)c(N6CCC(=O)NC6=O)nn8C)C7)CC5)C4)c(=O)c3c2)c1C#N` (centres unmarked) [Compound 141, 6-[2-cyano-3-[[ethyl(methyl)sulfamoyl]amino]-6-fluoro-phenoxy]-3-[7-[2-[3-(2,4-dioxohexahydropyrimidin-1-yl)-5-fluoro-1-methyl-indazol-6-yl]-2-azaspiro[3.3]heptan-6-yl]-7-azaspiro[3.5]nonan-2-yl]-4-oxo-quinazoline], the “Concentration in Brain” value ([1]; 0.75 mg/kg p.o. BID x 21 days) was “BQL”, the “Concentration in Brain” value ([1]; 1 mg/kg p.o. TID x 21 days) was “BQL” and the “Concentration in Brain” value ([1]; 1.5 mg/kg p.o. BID x 21 days) was “BQL”. For the same molecule, the “Concentration in Brain” value ([1]; 3 mg/kg p.o. QD x 21 days) was “BQL”, the concentration at 4 h ([1]; brain, 0.75 mg/kg p.o. BID x 21 days, mean ± SEM, read-out: Concentration in Brain) was 10.7 ± 2.04 ng/g and the concentration at 4 h ([1]; brain, 1 mg/kg p.o. TID x 21 days, mean ± SEM, read-out: Concentration in Brain) was 12.4 ± 2.79 ng/g. For the same molecule, the concentration at 4 h ([1]; brain, 1.5 mg/kg p.o. BID x 21 days, mean ± SEM, read-out: Concentration in Brain) was 10.1 ± 1.79 ng/g, the concentration at 4 h ([1]; brain, 3 mg/kg p.o. QD x 21 days, mean ± SEM, read-out: Concentration in Brain) was 22.9 ± 2.7 ng/g and the concentration at 4 h ([1]; brain, 5 mg/kg p.o. BID x 21 days, mean ± SEM, read-out: Concentration in Brain) was 51.4 ± 21.7 ng/g. For the same molecule, the concentration at 24 h ([1]; brain, 5 mg/kg p.o. BID x 21 days, read-out: Concentration in Brain) was 2.25 ng/g, the concentration at 0.25 h [1, 2] was 369 ± 64.7 ng/mL and the concentration at 0.5 h [1, 2] was 732 ± 139 ng/mL. For the same molecule, the concentration at 1 h [1, 2] was 1140 ± 226 ng/mL, the concentration at 2 h [1, 2] was 1280 ± 277 ng/mL and the concentration at 4 h [1, 3] was 663 ± 79 ng/mL. The concentration at 8 h [1, 2] was 432 ± 45.3 ng/mL, the concentration at 10 h [1, 2] was 343 ± 34.9 ng/mL and the concentration at 24 h [1, 3] was 10.8 ± 2.44 ng/mL. It also gave a concentration at 0.25 h [1, 4] of 950 ± 130 ng/mL, a concentration at 0.5 h [1, 4] of 1750 ± 165 ng/mL and a concentration at 1 h [1, 4] of 1930 ± 416 ng/mL. The concentration at 2 h [1, 4] was 1760 ± 262 ng/mL, the concentration at 4 h [1, 5] was 850 ± 185 ng/mL and the concentration at 8 h [1, 4] was 780 ± 53.4 ng/mL. For the same molecule, the concentration at 10 h [1, 4] was 676 ± 42.5 ng/mL, the concentration at 24 h [1, 5] was 33.7 ± 4.48 ng/mL and the concentration at 0.25 h [1, 6] was 702 ± 91.7 ng/mL. For the same molecule, the concentration at 0.5 h [1, 6] was 1360 ± 270 ng/mL, the concentration at 1 h [1, 6] was 1940 ± 211 ng/mL and the concentration at 2 h [1, 6] was 2120 ± 241 ng/mL. The concentration at 4 h [1, 7] was 950 ± 365 ng/mL, the concentration at 8 h [1, 6] was 523 ± 19.7 ng/mL and the concentration at 10 h [1, 6] was 328 ± 12.4 ng/mL. It also gave a concentration at 24 h [1, 7] of 11.2 ± 2.61 ng/mL, a concentration at 0.25 h [1, 8] of 1580 ± 247 ng/mL and a concentration at 0.5 h [1, 8] of 2850 ± 361 ng/mL. For the same molecule, the concentration at 1 h [1, 8] was 5130 ± 799 ng/mL, the concentration at 2 h [1, 8] was 5290 ± 555 ng/mL and the concentration at 4 h [1, 9] was 2430 ± 222 ng/mL. For the same molecule, the concentration at 8 h [1, 8] was 869 ± 101 ng/mL, the concentration at 10 h [1, 8] was 617 ± 41.7 ng/mL and the concentration at 24 h [1, 9] was 12.2 ± 1.4 ng/mL. For the same molecule, the concentration at 0.25 h [1, 10] was 2930 ± 226 ng/mL, the concentration at 0.5 h [1, 10] was 6300 ± 457 ng/mL and the concentration at 1 h [1, 10] was 6340 ± 1160 ng/mL. It also gave a concentration at 2 h [1, 10] of 6130 ± 1280 ng/mL, a concentration at 4 h [1, 11] of 3730 ± 1140 ng/mL and a concentration at 8 h [1, 10] of 3260 ± 243 ng/mL. The concentration at 10 h [1, 10] was 2370 ± 37.1 ng/mL, the concentration at 24 h [1, 11] was 38.9 ± 5.18 ng/mL and the concentration at 4 h ([1]; tumor, 0.75 mg/kg p.o. BID x 21 days, mean ± SEM, read-out: Concentration in Tumor) was 160 ± 24.9 ng/g. It also gave a concentration at 24 h ([1]; tumor, 0.75 mg/kg p.o. BID x 21 days, read-out: Concentration in Tumor) of 33 ng/g, a concentration at 4 h [1, 12] of 390 ± 107 ng/g and a concentration at 24 h [1, 12] of 14.3 ± 4.44 ng/g. For the same molecule, the concentration at 4 h [1, 13] was 317 ± 61.6 ng/g, the concentration at 24 h [1, 13] was 6.7 ng/g and the concentration at 4 h ([1]; tumor, 3 mg/kg p.o. QD x 21 days, mean ± SEM, read-out: Concentration in Tumor) was 909 ± 165 ng/g. For the same molecule, the concentration at 24 h ([1]; tumor, 3 mg/kg p.o. QD x 21 days, read-out: Concentration in Tumor) was 3.01 ng/g, the concentration at 4 h ([1]; tumor, 5 mg/kg p.o. BID x 21 days, mean ± SEM, read-out: Concentration in Tumor) was 1300 ± 471 ng/g and the concentration at 24 h ([1]; tumor, 5 mg/kg p.o. BID x 21 days, read-out: Concentration in Tumor) was 79.3 ng/g. For the same molecule, the “cytotoxicity (in words)” value (A375; A375 cells) was “potent cytotoxic agents” and the “effect on cancer cell viability” value (A375; human, a375 cells, 0.1 µM) was no less than 30%.
